d = 2'-deoxy (DNA); r = 2'-OH (RNA)
How the values were obtained:
Format in all cases: cell-based, human
IFN-α, IFN-β, IFN-γ = test: Interferon assay (IFN-α, β, γ mRNA by RT-PCR) in MG63 cells; settings: 50 or 100 nM, 24 h, compared to cell-alone control or scrambled sequence
Protocol: cDNA synthesis was performed in triplicate using total RNA reverse transcribed using High Capacity cDNA reverse transcription kit (Applied Biosystems, USA), with non-template control added to ensure a lack of signal in assay background. Reactions were incubated on a 96-well Applied Biosystems 9800 Fast Thermal Cycler PCR System at 37° C. for 60 min followed by 95° C. for 5 min. The real-time PCR reactions were carried out with 10 μl of 2×TaqMan® Universal PCR Master Mix, no AmpErase® UNG (Applied Biosystems, USA), 9 μl diluted cDNA, and 1 μl of TaqMan gene specific assay mix in a 20 μl final reaction volume. Reference gene beta-actin (ACTB) (Applied Biosystems, USA) was selected as control for normalization of TaqMan data. […] Data from samples with a Ct value equal to or below 35 were further analyzed. Samples were normalized relative to endogenous control and differences in cycle number thresholds were calculated using comparative quantitation 2^−ΔΔcT method (also called the ΔΔCT method), commonly used for analyzing siRNA induced gene knockdown efficiency. […]
Thus, because cellular stress mainly originates from maturation of the RNA-TLR complex in the endosome or activation of RIG-1 in the cytoplasm, we investigated immune activation and IFN response using cpRNA and a scrambled sequence. The levels of Type-I (IFN-α and β) and Type-II (IFN-γ) IFN were tested via quantitative RT-PCR. […]

CTNNB1 (β-catenin) = test: CTNNB1 knockdown time course in MG63 cells by qRT-PCR; settings: MG63, 50 nM, 24, 48 and 72 h; β-catenin cpRNA without transfection reagent vs canonical siRNA with transfection reagent
Protocol: At 70% confluency, a day prior to transfection, the cells were seeded at a density of 35 000 cells in a 24-well cell culture plate to achieve 60-80% confluence at the day of transfection. Cell penetrating siRNAs (cpRNAs) of different lengths were transfected at 50 nM concentrations with Magnet Assisted Transfection (MATra-si) reagent for siRNAs (IBA GmbH, Göttingen, Germany) according to the manufacturers' protocols. Briefly, the siRNA was mixed with MATra-si reagent composed of supermagnetic ironoxide nanoparticles and incubated for 20 min. A complex was formed which was added to the cells to be transfected. A strong magnetic force was applied beneath the cells for 15 min. This forced the complex to be drawn into the cells by the magnetic field, and as a result the siRNA was delivered directly into the cytosol. […]
cDNA synthesis was performed in triplicate using total RNA reverse transcribed using High Capacity cDNA reverse transcription kit (Applied Biosystems, USA), with non-template control added to ensure a lack of signal in assay background. […] Data from samples with a Ct value equal to or below 35 were further analyzed. Samples were normalized relative to endogenous control and differences in cycle number thresholds were calculated using comparative quantitation 2^−ΔΔcT method (also called the ΔΔCT method), commonly used for analyzing siRNA induced gene knockdown efficiency. […]

β-catenin = test: Western blot of β-catenin protein in MG63 cells; settings: MG63, 50 nM, at 48 h, β-catenin cpRNA, no transfection reagent
Protocol: After 48 hours of transfection, cells were washed twice with ice-cold PBS and lysed in RIPA lysis buffer (50 mM Tris-HCl, pH 8.0, with 150 mM NaCl, 1.0% Igepal CA-630 (NP-40), 0.5% sodiumdeoxycholate, 0.1% SDS, and 1.0% protease inhibitor cocktail from SIGMA-ALDRICH®). Lysates were incubated on ice for 30 minutes and centrifuged at 10,000 rpm for 20 minutes to collect supernatant. Coomassie Plus—The Better Bradford Assay™ Reagent (Thermo Scientific) was used to measure protein concentrations. Thereafter, 20 μg of soluble protein was separated by SDS-PAGE and transferred to polyvinylidene difluoride membrane (Millipore). Primary antibodies against GAPDH (1:1000 dilution), β-catenin (1:1000 dilution; SIGMA-ALDRICH®), β-actin (1:1000; Cell Signaling Technology®) were used to probe the protein bands. Anti-Rabbit-HRP conjugated secondary antibodies (1:3000 dilution; R&D Systems®) were used to detect the primary antibodies, followed by the target protein visualization with EMD Millipore Immobilon™ Western Chemiluminescent HRP Substrate (ECL). […]
To further validate our results, we tested the gene knockdown efficiency of another gene CTNNB1 (β-catenin), which is expressed in MG63 cells. We performed a time course experiment (24, 48 and 72 h) by targeting CTNNB1 and GAPDH in MG63 cells and quantified the mRNA and protein levels using qRT-PCR and Western blot experiments respectively (FIG. 8).

With “dT5: GAPDH siRNA, sense SEQ ID NO: 3 with dT5 3′-overhang, antisense SEQ ID NO: 2 with dT2 (sense CCGAGCCACAUCGCUCAGATTTTT; antisense UCUGAGCGAUGUGGCUCGGTT; sense: sugars from the 5' end r19 d5, backbone not given here; antisense: sugars from the 5' end r19 d2, backbone not given here)” the “IFN response / immune activation (IFN-α, β, γ mRNA)” value (IFN-α, IFN-β, IFN-γ) was “no significant IFN response”, the “CTNNB1 mRNA knockdown efficiency over time” value (CTNNB1 (β-catenin)) was “higher gene knockdown efficiency for over 72 hrs” and the CTNNB1 protein level (β-catenin) was “complete knockout”.

— patent US20180265867A1, “NUCLEIC ACID MOLECULES WITH ENHANCED ACTIVITY” (priority 2015, published 2018)
